According to patent US10870624B2, “Histone deacetylase inhibitors” (Karus Therapeutics Limited, priority 2013, dated 2020):

Experiments:
Human HDAC1 = biological target: T1, Human HDAC1 (Homo sapiens, UniProt Q13547); assay: Biochemical HDAC assay with acetylated AMC-labeled peptide substrate, HDAC1; conditions: HDAC1, 2 hours at 30° C.; read-out: IC50 (nM) HDAC 1
T1 construct: full length with C-terminal His-tag and C-terminal FLAG-tag; His-tag (C); FLAG-tag (C); made in house; host or cells: baculovirus expression system (insect cells)
T1 sequence (Q13547 whole entry): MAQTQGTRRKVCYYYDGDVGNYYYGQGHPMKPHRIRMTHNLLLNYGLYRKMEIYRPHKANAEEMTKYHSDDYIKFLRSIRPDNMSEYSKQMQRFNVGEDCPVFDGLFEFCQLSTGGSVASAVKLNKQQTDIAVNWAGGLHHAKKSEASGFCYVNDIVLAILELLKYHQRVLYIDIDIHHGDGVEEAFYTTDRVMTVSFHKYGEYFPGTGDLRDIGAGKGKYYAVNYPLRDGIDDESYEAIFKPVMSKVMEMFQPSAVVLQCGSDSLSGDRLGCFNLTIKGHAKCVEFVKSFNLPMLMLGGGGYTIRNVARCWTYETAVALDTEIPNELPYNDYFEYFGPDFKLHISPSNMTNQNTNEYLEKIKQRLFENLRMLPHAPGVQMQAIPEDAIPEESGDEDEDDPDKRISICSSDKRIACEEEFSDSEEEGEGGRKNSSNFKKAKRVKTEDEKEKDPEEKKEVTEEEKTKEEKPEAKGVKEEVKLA
Protocol: (§1) Activity against all zinc-dependent HDACs 1 to 11 was assessed by using an acetylated AMC-labeled peptide substrate. The substrate RHKKAc was used for all class I and IIb HDACs; for […], the substrate used was RHKAcKAc. […] All assays were based on the AMC-labeled substrate and developer combination.
(§2) The protocol involved a two-step reaction: first, the substrate with the acetylated lysine side chain is incubated with a sample containing HDAC activity, to produce the deacetylated products, which are then digested in the second step by the addition of developer to produce the fluorescent signal proportional to the amount of deacetylated substrates.
Human HDAC1 (GenBank Accession No. NM_004964), full length with C-terminal His-tag and C-terminal FLAG-tag, MW=56 kDa, expressed in baculovirus expression system.
(§3) Before use, 1 mg/mL BSA and DMSO are added.
(§4) Incubate for 2 hours at 30° C.
(§5) Stage 1: Deacetylation of substrate by incubation of HDAC enzymes with compounds
(§6) Stage 2: Development by addition of Developer to digest the deacetylated substrate, and generate the fluorescent color; Detection: 360/460 Ex/Em

Recombinant human HDAC6 = biological target: T2, Recombinant human HDAC6 (Homo sapiens, UniProt Q9UBN7); assay: Biochemical HDAC assay with acetylated AMC-labeled peptide substrate, HDAC6; conditions: HDAC6, 2 hours at 30° C.; read-out: IC50 (nM) HDAC 6
T2 construct: full length, MW=180 kDa, was expressed by baculovirus in Sf9 insect cells; GST (N); made in house; host or cells: Sf9 insect cells (baculovirus)
T2 sequence (Q9UBN7 1-1215): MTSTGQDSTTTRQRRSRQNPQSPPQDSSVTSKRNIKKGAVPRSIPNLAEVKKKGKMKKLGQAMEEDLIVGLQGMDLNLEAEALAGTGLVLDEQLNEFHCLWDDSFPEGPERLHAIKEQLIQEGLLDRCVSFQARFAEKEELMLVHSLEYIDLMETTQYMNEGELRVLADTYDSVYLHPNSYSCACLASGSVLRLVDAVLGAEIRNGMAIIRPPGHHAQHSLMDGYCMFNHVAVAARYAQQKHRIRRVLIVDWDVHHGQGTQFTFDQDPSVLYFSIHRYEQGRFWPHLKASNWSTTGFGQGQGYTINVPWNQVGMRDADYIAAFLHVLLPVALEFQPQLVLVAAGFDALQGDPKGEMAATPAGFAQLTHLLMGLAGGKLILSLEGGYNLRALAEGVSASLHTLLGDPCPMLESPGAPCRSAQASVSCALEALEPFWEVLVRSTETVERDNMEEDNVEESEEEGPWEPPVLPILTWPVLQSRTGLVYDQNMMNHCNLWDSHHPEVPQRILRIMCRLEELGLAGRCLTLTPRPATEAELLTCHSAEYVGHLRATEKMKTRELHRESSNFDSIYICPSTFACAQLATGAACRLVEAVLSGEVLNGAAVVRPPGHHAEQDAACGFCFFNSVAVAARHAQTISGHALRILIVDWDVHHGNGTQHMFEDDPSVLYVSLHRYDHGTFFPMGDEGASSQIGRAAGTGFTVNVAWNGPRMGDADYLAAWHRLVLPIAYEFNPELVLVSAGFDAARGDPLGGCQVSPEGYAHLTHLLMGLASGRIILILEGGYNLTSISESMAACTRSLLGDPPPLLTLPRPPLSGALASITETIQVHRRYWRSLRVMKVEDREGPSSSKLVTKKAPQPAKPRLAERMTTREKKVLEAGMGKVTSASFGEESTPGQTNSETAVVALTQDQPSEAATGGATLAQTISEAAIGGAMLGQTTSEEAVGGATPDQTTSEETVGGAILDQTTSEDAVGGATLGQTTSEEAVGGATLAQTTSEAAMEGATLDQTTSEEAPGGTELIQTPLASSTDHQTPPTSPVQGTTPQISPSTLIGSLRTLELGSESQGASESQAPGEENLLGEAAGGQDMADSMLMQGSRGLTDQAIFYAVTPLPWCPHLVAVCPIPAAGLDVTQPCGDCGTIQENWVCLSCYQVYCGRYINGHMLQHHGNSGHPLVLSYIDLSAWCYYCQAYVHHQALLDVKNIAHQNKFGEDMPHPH
Protocol: as §1, §2
Recombinant human HDAC6 (GenBank Accession No. BC069243), full length, MW=180 kDa, was expressed by baculovirus in Sf9 insect cells using an N-terminal GST tag.
as §3, §4, §5, §6

Row | Structure (SMILES) | IC50 (Human HDAC1) [nM] | IC50 (Recombinant human HDAC6) [nM]
1 | O=C(NO)c1ccc(CN(c2ccccn2)c2ccccn2)cc1 [Example A, 4-{[Bis(pyridin-2-yl)amino]methyl}-N-hydroxybenzamide] | > 10000 | ≤ 500
2 | O=C(NO)c1ccc(CN(c2ccccn2)c2nncs2)cc1 [Example F, N-Hydroxy-4-((pyridin-2-yl(1,3,4-thiadiazol-2-yl)amino)methyl)benzamide] | > 10000 | ≤ 500
3 | O=C(NO)c1ccc(CN(c2ccccn2)c2cnccn2)cc1 [Example G, N-Hydroxy-4-((pyrazin-2-yl(pyridin-2-yl)amino)methyl)benzamide] | > 10000 | ≤ 500
4 | Cc1nsc(N(Cc2ccc(C(=O)NO)c(F)c2)c2nc(C)ns2)n1 [Example B, 4-{[Bis(3-methyl-1,2,4-thiadiazol-5-yl)amino]methyl}-2-fluoro-N-hydroxybenzamide] | > 10000 | ≤ 500

Continued, values first:

Row | IC50 (Human HDAC1) [nM] | IC50 (Recombinant human HDAC6) [nM] | Structure (SMILES)
5 | 1000 to 10000 | ≤ 500 | Cc1noc(N(Cc2ccc(C(=O)NO)c(F)c2)c2nc(C)ns2)n1 [Example C, 2-Fluoro-N-hydroxy-4-{[(3-methyl-1,2,4-oxadiazol-5-yl)(3-methyl-1,2,4-thiadiazol-5-yl)amino]methyl}benzamide]
6 | 1000 to 10000 | ≤ 500 | Cc1noc(N(Cc2ccc(C(=O)NO)cc2)c2ccccn2)n1 [Example D, N-Hydroxy-4-(((3-methyl-1,2,4-oxadiazol-5-yl)(pyridin-2-yl)amino)methyl)benzamide]
7 | 1000 to 10000 | ≤ 500 | Cn1ccc(N(Cc2ccc(C(=O)NO)cc2)c2ccccn2)n1 [Example E, N-Hydroxy-4-(((1-methyl-1H-pyrazol-3-yl)(pyridin-2-yl)amino)methyl)benzamide]
